Bounds are passed on as bounds.

Test [1] deals with T1, human Nav1.7 (Homo sapiens, UniProt Q15858).
T1 construct: expressed in transfected cells; host or cells: HEK293
The test can be described thus: Nav 1.7 In Vitro PatchXpress (PX) Assay. The following applies: HEK 293 cells stably transfected with human Nav1.7; PatchXpress whole cell voltage clamp; partially inactivated state (holding potential yielding 20 to 50% inactivation); read-out: hNav1.7 PX IC50. It counts as cell-based. As to the method: Nav 1.7 In Vitro PatchXpress (PX) Assay
HEK 293 cells stably transfected with human Nav1.7 were recorded in whole cell voltage clamp mode with the PatchXpress automated electrophysiology system (Molecular Devices, LLC, Sunnyvale, Calif.). Compound effects were measured on a partially inactivated state of the sodium channel. Cells were clamped to a holding potential yielding 20 to 50% inactivation. To elicit sodium current, channels were activated by pulsing to −10 mV for 20 msec. This voltage protocol was repeated at a rate of 0.1 Hz throughout the experiment. A single concentration of test compound was applied to cells for a duration of 3 minutes. Peak sodium current was measured at the end of the compound addition period to determine percent inhibition. Three to five cells were tested per concentration, and IC50 curves were fitted to percent inhibition as a function of concentration.

Test [2] has as its target T1, human Nav1.7. The test can be described thus: Nav 1.7 IWB In Vitro Assay (IonWorks Barracuda). The format is cell-based. The following applies: HEK293 cells stably transfected with human Nav 1.7; IonWorks Barracuda population patch-clamp; cells clamped to −20 mV for 4 minutes with compound; 26th pulse; read-out: hNav1.7 IWB IC50. As to the method: Nav 1.7 IWB In Vitro Assay
HEK293 cells stably transfected with human Nav 1.7 were recorded in population patch-clamp mode with the IonWorks© Barracuda (IWB) automated electrophysiology system (Molecular Devices, LLC, Sunnyvale, Calif.). From a holding potential of −110 mV, sodium currents were elicited by a train of 26 depolarizations of 150 ms duration to −20 mV at a frequency of 5 Hz. Cells were then clamped to −20 mV for a period of 4 minutes in the presence of a single concentration of test compound. Following this compound incubation period, cells were clamped to −110 mV for three seconds to recover unbound channels and put through the same 26 pulse voltage protocol as above. Peak inward current during the 26th pulse to −20 mV in the presence of compound was divided by the peak inward current evoked by the 26th pulse to −20 mV in the absence of compound to determine percent inhibition. Concentration-response curves of percent inhibition as a function of concentration were generated to calculate IC50 values.
For orientation: The patch-clamp technique gives a direct electrical read-out from membranes.

T1 sequence (Q15858 whole entry): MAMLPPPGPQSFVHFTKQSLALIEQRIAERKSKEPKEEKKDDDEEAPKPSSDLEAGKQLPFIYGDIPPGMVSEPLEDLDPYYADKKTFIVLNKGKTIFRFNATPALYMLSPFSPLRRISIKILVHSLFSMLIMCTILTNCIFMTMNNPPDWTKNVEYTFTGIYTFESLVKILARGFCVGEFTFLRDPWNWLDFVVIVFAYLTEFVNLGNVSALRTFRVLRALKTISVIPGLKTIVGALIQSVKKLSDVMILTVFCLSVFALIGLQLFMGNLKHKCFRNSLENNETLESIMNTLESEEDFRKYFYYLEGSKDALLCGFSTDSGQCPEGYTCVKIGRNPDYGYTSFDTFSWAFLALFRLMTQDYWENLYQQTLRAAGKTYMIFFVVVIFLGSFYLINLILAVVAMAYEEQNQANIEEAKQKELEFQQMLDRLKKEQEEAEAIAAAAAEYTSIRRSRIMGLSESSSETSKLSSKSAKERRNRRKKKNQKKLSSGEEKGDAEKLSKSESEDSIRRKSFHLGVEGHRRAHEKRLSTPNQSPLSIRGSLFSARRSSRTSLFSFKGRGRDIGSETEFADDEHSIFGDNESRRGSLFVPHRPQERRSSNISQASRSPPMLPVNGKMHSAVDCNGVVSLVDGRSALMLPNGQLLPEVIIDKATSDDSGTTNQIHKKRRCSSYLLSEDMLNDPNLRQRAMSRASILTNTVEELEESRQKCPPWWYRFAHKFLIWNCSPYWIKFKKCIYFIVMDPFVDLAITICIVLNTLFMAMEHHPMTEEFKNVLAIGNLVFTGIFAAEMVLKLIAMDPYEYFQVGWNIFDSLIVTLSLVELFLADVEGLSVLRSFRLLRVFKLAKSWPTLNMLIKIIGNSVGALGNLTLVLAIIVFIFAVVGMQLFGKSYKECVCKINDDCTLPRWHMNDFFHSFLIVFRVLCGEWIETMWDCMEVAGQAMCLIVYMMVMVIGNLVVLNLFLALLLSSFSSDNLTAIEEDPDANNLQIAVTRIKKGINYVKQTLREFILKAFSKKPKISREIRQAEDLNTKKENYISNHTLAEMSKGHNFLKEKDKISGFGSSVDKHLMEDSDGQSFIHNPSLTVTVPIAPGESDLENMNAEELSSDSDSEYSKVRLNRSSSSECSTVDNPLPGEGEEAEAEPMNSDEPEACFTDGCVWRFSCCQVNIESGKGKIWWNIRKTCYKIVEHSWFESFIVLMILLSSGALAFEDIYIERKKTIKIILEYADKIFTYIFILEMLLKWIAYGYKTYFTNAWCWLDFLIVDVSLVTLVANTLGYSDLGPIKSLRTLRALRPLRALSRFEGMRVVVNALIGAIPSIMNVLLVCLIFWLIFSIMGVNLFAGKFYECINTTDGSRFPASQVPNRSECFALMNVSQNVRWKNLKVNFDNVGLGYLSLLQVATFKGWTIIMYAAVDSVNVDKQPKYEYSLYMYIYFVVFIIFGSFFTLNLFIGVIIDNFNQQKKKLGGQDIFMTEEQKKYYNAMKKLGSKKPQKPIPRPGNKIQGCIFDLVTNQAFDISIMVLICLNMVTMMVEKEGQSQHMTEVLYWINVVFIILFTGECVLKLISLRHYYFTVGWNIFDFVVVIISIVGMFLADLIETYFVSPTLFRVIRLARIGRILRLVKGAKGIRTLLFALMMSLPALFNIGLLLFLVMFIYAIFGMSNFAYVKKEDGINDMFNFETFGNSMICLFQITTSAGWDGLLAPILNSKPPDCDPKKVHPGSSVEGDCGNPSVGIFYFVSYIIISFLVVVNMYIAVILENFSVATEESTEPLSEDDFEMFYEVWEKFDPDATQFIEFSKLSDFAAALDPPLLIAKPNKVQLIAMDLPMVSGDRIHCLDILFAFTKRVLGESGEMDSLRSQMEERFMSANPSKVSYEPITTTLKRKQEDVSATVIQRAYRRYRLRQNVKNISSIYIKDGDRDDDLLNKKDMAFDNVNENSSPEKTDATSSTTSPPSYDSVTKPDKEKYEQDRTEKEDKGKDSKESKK

Consider `COc1cc(-c2cc(F)cc(F)c2)c(F)cc1-n1c2c(ccc1=O)CN(S(=O)(=O)Nc1ncc(F)cn1)CC2` (single isomer, unassigned) [Example 10-P, P-N-(5-fluoro-2-pyrimidinyl)-2-oxo-1-(2,3′,5′-trifluoro-5-methoxy-4-biphenylyl)-1,5,7,8-tetrahydro-1,6-naphthyridine-6(2H)-sulfonamide], for which the figures for the IC50 at human Nav1.7 [1] and on human Nav1.7 [2] were 0.644 µM and 0.0529 µM, respectively.
Consider `COc1cc(-c2ccc(F)c(C)c2)c(Cl)cc1-n1c2c(ccc1=O)CN(S(=O)(=O)Nc1cccnn1)CC2` (single isomer, unassigned) [Example 92-P, P-1-(2-chloro-4′-fluoro-5-methoxy-3′-methyl-[1,1′-biphenyl]-4-yl)-2-oxo-N-(pyridazin-3-yl)-1,2,7,8-tetrahydro-1,6-naphthyridine-6(5H)-sulfonamide], for which the IC50 at human Nav1.7 [1] came to 0.0414 µM; on human Nav1.7 [2], 0.0059 µM.
In the case of `COc1cc(-c2cc(C)cc(Cl)c2)c(F)cc1-n1c2c(ccc1=O)CN(S(=O)(=O)Nc1cccnn1)CC2` [Example 69, P-1-(3′-chloro-2-fluoro-5-methoxy-5′-methyl-[1,1′-biphenyl]-4-yl)-2-oxo-N-(pyridazin-3-yl)-1,2,7,8-tetrahydro-1,6-naphthyridine-6(5H)-sulfonamide], the IC50 at human Nav1.7 [1] turned out to be 0.0228 µM; at human Nav1.7 [2], 0.0169 µM.
For the molecule `COc1cc(-c2cc(Cl)cnc2OC)c(F)cc1-n1c2c(ccc1=O)CN(S(=O)(=O)Nc1cccnn1)CC2` [Example 60, P-1-(4-(5-chloro-2-methoxypyridin-3-yl)-5-fluoro-2-methoxyphenyl)-2-oxo-N-(pyridazin-3-yl)-1,2,7,8-tetrahydro-1,6-naphthyridine-6(5H)-sulfonamide], the figures for the IC50 on human Nav1.7 [1] and on human Nav1.7 [2] were 0.42 µM and 0.0375 µM, respectively.
With `COc1cc(-c2cc(F)cc(Cl)c2)c(F)cc1-n1c2c(ccc1=O)CN(S(=O)(=O)Nc1cccnn1)CC2` (single isomer, unassigned) [Example 38-M, M-1-(3′-chloro-2,5′-difluoro-5-methoxy-4-biphenylyl)-2-oxo-N-3-pyridazinyl-1,5,7,8-tetrahydro-1,6-naphthyridine-6(2H)-sulfonamide], the figures for the IC50 on human Nav1.7 [1] and on human Nav1.7 [2] were 3.12 µM and 0.662 µM, respectively.
The corresponding values for `COc1cc(-c2ccc(F)c(C)c2)c(F)cc1-n1c2c(ccc1=O)CN(S(=O)(=O)Nc1ncccn1)CC2` (racemic) [Example 29-(Rac), (Rac)-1-(2,4′-difluoro-5-methoxy-3′-methyl-4-biphenylyl)-2-oxo-N-2-pyrimidinyl-1,5,7,8-tetrahydro-1,6-naphthyridine-6(2H)-sulfonamide] are 1.17 µM and 0.122 µM.
On to `COc1cc(-c2ccc(F)c(C)c2)c(Cl)cc1-n1c2c(ccc1=O)CN(S(=O)(=O)Nc1cccnn1)CC2` (single isomer, unassigned) [Example 92-M, M-1-(2-chloro-4′-fluoro-5-methoxy-3′-methyl-[1,1′-biphenyl]-4-yl)-2-oxo-N-(pyridazin-3-yl)-1,2,7,8-tetrahydro-1,6-naphthyridine-6(5H)-sulfonamide], for which the IC50 on human Nav1.7 [1] was 3.01 µM; at human Nav1.7 [2], 0.282 µM.
For `COc1cc(-c2cccc(C3CC3)c2)c(F)cc1-n1c2c(ccc1=O)CN(S(=O)(=O)Nc1cccnn1)CC2` [Example 42, P-1-(3′-cyclopropyl-2-fluoro-5-methoxy-4-biphenylyl)-2-oxo-N-3-pyridazinyl-1,5,7,8-tetrahydro-1,6-naphthyridine-6(2H)-sulfonamide], the IC50 on human Nav1.7 [1] was found to be 0.0766 µM; on human Nav1.7 [2] it was 0.0078 µM.
On to `COc1cc(-c2cc(F)cc(Cl)c2)c(F)cc1-n1c2c(ccc1=O)CN(S(=O)(=O)Nc1ccnc(C)n1)CC2` (racemic) [6-(Rac), (Rac)-1-(3′-chloro-2,5′-difluoro-5-methoxy-4-biphenylyl)-N-(2-methyl-4-pyrimidinyl)-2-oxo-1,5,7,8-tetrahydro-1,6-naphthyridine-6(2H)-sulfonamide], for which the IC50 at human Nav1.7 [1] came to 0.666 µM; at human Nav1.7 [2], 0.101 µM.
In the case of `COc1cc(-c2ccc(Cl)c(C)c2)c(F)cc1-n1c2c(ccc1=O)CN(S(=O)(=O)Nc1ncccn1)CC2` (single isomer, unassigned) [Example 30-M, M-1-(4′-chloro-2-fluoro-5-methoxy-3′-methyl-4-biphenylyl)-2-oxo-N-2-pyrimidinyl-1,5,7,8-tetrahydro-1,6-naphthyridine-6(2H)-sulfonamide], the IC50 on human Nav1.7 [1] amounted to 24.9 µM; on human Nav1.7 [2] it was 3.91 µM.
In the case of `COc1cc(-c2cccc(C(F)(F)F)c2)c(Cl)cc1-n1c2c(ccc1=O)CN(S(=O)(=O)Nc1ccon1)CC2` [Example 54, P-1-(2-chloro-5-methoxy-3′-(trifluoromethyl)-4-biphenylyl)-N-3-isoxazolyl-2-oxo-1,5,7,8-tetrahydro-1,6-naphthyridine-6(2H)-sulfonamide], the IC50 at human Nav1.7 [1] worked out at 0.0069 µM; at human Nav1.7 [2], 0.0005 µM.
As to `COc1cc(-c2cccc(Cl)c2)c(F)cc1-n1c2c(ccc1=O)CN(S(=O)(=O)Nc1cccnn1)CC2` [Example 62, P-1-(3′-chloro-2-fluoro-5-methoxy-[1,1′-biphenyl]-4-yl)-2-oxo-N-(pyridazin-3-yl)-1,2,7,8-tetrahydro-1,6-naphthyridine-6(5H)-sulfonamide], the IC50 was found to be 0.0758 µM on human Nav1.7 [1] and 0.0086 µM at human Nav1.7 [2].
Consider `COc1cc(-c2ccc(F)c(F)c2)c(Cl)cc1-n1c2c(ccc1=O)CN(S(=O)(=O)Nc1ccon1)CC2` [Example 51, P-1-(2-chloro-3′,4′-difluoro-5-methoxy-4-biphenylyl)-N-3-isoxazolyl-2-oxo-1,5,7,8-tetrahydro-1,6-naphthyridine-6(2H)-sulfonamide], for which the values for the IC50 on human Nav1.7 [1] and at human Nav1.7 [2] were 0.0451 µM and less than 0.002 µM, respectively.
`COc1cc(-c2cc(F)cc(F)c2)c(F)cc1-n1c2c(ccc1=O)CN(S(=O)(=O)Nc1ncon1)CC2` (single isomer, unassigned) [Example 17-M, M-N-1,2,4-oxadiazol-3-yl-2-oxo-1-(2,3′,5′-trifluoro-5-methoxy-4-biphenylyl)-1,5,7,8-tetrahydro-1,6-naphthyridine-6(2H)-sulfonamide]: the half-maximal inhibitory concentration (IC50) came to 0.292 µM on human Nav1.7 [1] and 0.0343 µM on human Nav1.7 [2].
For the molecule `COc1cc(-c2cc(F)cc(Cl)c2)ccc1-n1c2c(ccc1=O)CN(S(=O)(=O)Nc1ccon1)CC2` (racemic) [7-(Rac), (Rac)-1-(3′-chloro-5′-fluoro-3-methoxy-4-biphenylyl)-N-3-isoxazolyl-2-oxo-1,5,7,8-tetrahydro-1,6-naphthyridine-6(2H)-sulfonamide], the IC50 at human Nav1.7 [1] turned out to be 0.254 µM; on human Nav1.7 [2], 0.0167 µM.
For the molecule `COc1cc(-c2ccc(F)c(C)c2)c(F)cc1-n1c2c(ccc1=O)CN(S(=O)(=O)Nc1ccon1)CC2` (single isomer, unassigned) [Example 22-M, M-1-(2,4′-difluoro-5-methoxy-3′-methyl-4-biphenylyl)-N-3-isoxazolyl-2-oxo-1,5,7,8-tetrahydro-1,6-naphthyridine-6(2H)-sulfonamide], the IC50 on human Nav1.7 [1] was greater than 30 µM; at human Nav1.7 [2], greater than 10 µM.
As for `COc1cc(-c2ccc(F)c(C)c2)c(F)cc1-n1c2c(ccc1=O)CN(S(=O)(=O)Nc1cccnn1)CC2` [Example 73, P-1-(2,4′-difluoro-5-methoxy-3′-methyl-[1,1′-biphenyl]-4-yl)-2-oxo-N-(pyridazin-3-yl)-1,2,7,8-tetrahydro-1,6-naphthyridine-6(5H)-sulfonamide], the IC50 was 0.232 µM on human Nav1.7 [1] and 0.018 µM at human Nav1.7 [2].
For `COc1cc(-c2cc(F)cc(Cl)c2)c(F)cc1-n1c2c(ccc1=O)CN(S(=O)(=O)Nc1ncccn1)CC2` (single isomer, unassigned) [Example 31-M, M-1-(3′-chloro-2,5′-difluoro-5-methoxy-4-biphenylyl)-2-oxo-N-2-pyrimidinyl-1,5,7,8-tetrahydro-1,6-naphthyridine-6(2H)-sulfonamide], the IC50 was found to be 5.02 µM on human Nav1.7 [1] and 2.73 µM on human Nav1.7 [2].
Regarding `COc1cc(-c2cccc(C(F)F)c2)c(F)cc1-n1c2c(ccc1=O)CN(S(=O)(=O)Nc1cccnn1)CC2` [Example 72, P-1-(3′-(difluoromethyl)-2-fluoro-5-methoxy-[1,1′-biphenyl]-4-yl)-2-oxo-N-(pyridazin-3-yl)-1,2,7,8-tetrahydro-1,6-naphthyridine-6(5H)-sulfonamide], the IC50 on human Nav1.7 [1] is 0.265 µM; at human Nav1.7 [2] it was 0.0151 µM.
Regarding `COc1cc(-c2ccc(Cl)c(C)c2)c(F)cc1-n1c2c(ccc1=O)CN(S(=O)(=O)Nc1cc(C)ncn1)CC2` (racemic) [Example 40, (Rac)-1-(4′-chloro-2-fluoro-5-methoxy-3′-methyl-4-biphenylyl)-N-(6-methyl-4-pyrimidinyl)-2-oxo-1,5,7,8-tetrahydro-1,6-naphthyridine-6(2H)-sulfonamide], the IC50 at human Nav1.7 [1] came to 0.204 µM; on human Nav1.7 [2], 0.0423 µM.

As a reminder, the IC50 is the concentration needed to halve the response being measured.

The record behind these values is patent publication US10472356B2, “Bicyclic ketone sulfonamide compounds” (AMGEN INC., priority 2015, dated 2019).
